Assay results published in patent publication US20230143604A1, “QW DOSING OF GIP RECEPTOR AGONIST PEPTIDE COMPOUNDS AND USES THEREOF” (TAKEDA PHARMACEUTICAL COMPANY LIMITED, priority 2020, published 2023).
Starred links: 1 amine or outer side, 2 acyl side, 3 side chain; linkers in the order of their positions; H or OH if unused. Non-standard residues stand in square brackets, D forms with d. Residues, ends and D or L forms follow the SMILES beside them. Groups on a side chain read outwards from the residue. *: point of attachment. C18 diacid = O=C(O)CCCCCCCCCCCCCCCCC(=O)*; γGlu = O=C(O)[C@H](CCC(=O)[*:2])N[*:1]; NMeY = CN[C@@H](Cc1ccc(O)cc1)C(=O)O; AEEA = NCCOCCOCC(=O)O; Aib = CC(C)(N)C(=O)O

Assay: physchem
Procedure, shortened: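 Solubility at pH 7.4 determined by stepwise addition of 200 mM phosphate buffer in 100 μL increments to 3 mg peptide, mixing briefly each time, until no insoluble material remained, then measured by liquid chromatography.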

[1] = pH 7.4, aqueous buffer, pH 7.4 Phosphate Buffer - Solubility, 200 mM Phosphate buffer pH 7.4
[2] = pH 7.4, solubility in phosphate buffer at pH 7.4, 200 mM phosphate buffer pH 7.4

CC[C@H](C)[C@H](NC(=O)[C@H](CO)NC(=O)[C@H](Cc1ccc(O)cc1)NC(=O)[C@H](CC(=O)O)NC(=O)[C@H](CO)NC(=O)[C@@H](NC(=O)[C@H](Cc1ccccc1)NC(=O)[C@@H](NC(=O)CNC(=O)[C@H](CCC(=O)O)NC(=O)C(C)(C)NC(=O)[C@H](Cc1ccc(O)cc1)NC)[C@@H](C)O)[C@@H](C)CC)C(=O)N[C@@H](C)C(=O)N[C@@H](CC(C)C)C(=O)N[C@@H](CC(=O)O)C(=O)N[C@@H](CCCNC(=N)N)C(=O)NC(C)(C)C(=O)N[C@@H](C)C(=O)N[C@@H](CCC(N)=O)C(=O)NC(C)(C)C(=O)N[C@@H](CC(N)=O)C(=O)N[C@@H](Cc1ccccc1)C(=O)N[C@H](C(=O)N[C@@H](CC(N)=O)C(=O)N[C@@H](Cc1c[nH]c2ccccc12)C(=O)N[C@@H](CC(C)C)C(=O)N[C@@H](CC(C)C)C(=O)N[C@@H](C)C(=O)N[C@@H](CCCCNC(=O)COCCOCCNC(=O)COCCOCCNC(=O)CC[C@H](NC(=O)CC[C@H](NC(=O)CCCCCCCCCCCCCCCCC(=O)O)C(=O)O)C(=O)O)C(=O)N[C@@H](CCCNC(=N)N)C(=O)NCC(=O)O)C(C)C [Compound 55] (H-[NMeY][Aib]EGTFISDYSIALDR[Aib]AQ[Aib]NFVNWLLAK([AEEA-AEEA-γGlu-γGlu-C18 diacid])RG-OH)
solubility (pH 7.4): ≥ 15 mg/mL
solubility (pH 7.4, aqueous buffer): ≥ 30 mg/mL

CC[C@H](C)[C@H](NC(=O)[C@H](CO)NC(=O)[C@H](Cc1ccc(O)cc1)NC(=O)[C@H](CC(=O)O)NC(=O)[C@H](CO)NC(=O)[C@@H](NC(=O)[C@H](Cc1ccccc1)NC(=O)[C@@H](NC(=O)CNC(=O)[C@H](CCC(=O)O)NC(=O)C(C)(C)NC(=O)[C@H](Cc1ccc(O)cc1)NC)[C@@H](C)O)[C@@H](C)CC)C(=O)N[C@@H](C)C(=O)N[C@@H](CC(C)C)C(=O)N[C@@H](CC(=O)O)C(=O)N[C@@H](CCCNC(=N)N)C(=O)NC(C)(C)C(=O)N[C@@H](C)C(=O)N[C@@H](CCC(N)=O)C(=O)NC(C)(C)C(=O)N[C@@H](CC(=O)O)C(=O)N[C@@H](Cc1ccccc1)C(=O)N[C@H](C(=O)N[C@@H](CC(N)=O)C(=O)N[C@@H](Cc1c[nH]c2ccccc12)C(=O)N[C@@H](CC(C)C)C(=O)N[C@@H](CC(C)C)C(=O)N[C@@H](C)C(=O)N[C@@H](CCCCNC(=O)COCCOCCNC(=O)COCCOCCNC(=O)CC[C@H](NC(=O)CC[C@H](NC(=O)CCCCCCCCCCCCCCCCC(=O)O)C(=O)O)C(=O)O)C(=O)N[C@@H](CCCNC(=N)N)C(=O)NCC(=O)O)C(C)C [Compound 56] (H-[NMeY][Aib]EGTFISDYSIALDR[Aib]AQ[Aib]DFVNWLLAK([AEEA-AEEA-γGlu-γGlu-C18 diacid])RG-OH)
solubility (pH 7.4): ≥ 15 mg/mL
solubility (pH 7.4, aqueous buffer): ≥ 30 mg/mL

CC[C@H](C)[C@H](NC(=O)[C@H](CO)NC(=O)[C@H](Cc1ccc(O)cc1)NC(=O)[C@H](CC(=O)O)NC(=O)[C@H](CO)NC(=O)[C@@H](NC(=O)[C@H](Cc1ccccc1)NC(=O)[C@@H](NC(=O)CNC(=O)[C@H](CCC(=O)O)NC(=O)C(C)(C)NC(=O)[C@H](Cc1ccc(O)cc1)NC)[C@@H](C)O)[C@@H](C)CC)C(=O)N[C@@H](C)C(=O)N[C@@H](CC(C)C)C(=O)N[C@@H](CC(=O)O)C(=O)N[C@@H](CCCNC(=N)N)C(=O)NC(C)(C)C(=O)N[C@@H](C)C(=O)N[C@@H](CCC(N)=O)C(=O)NC(C)(C)C(=O)N[C@@H](CC(=O)O)C(=O)N[C@@H](Cc1ccccc1)C(=O)N[C@H](C(=O)N[C@@H](CC(N)=O)C(=O)N[C@@H](Cc1c[nH]c2ccccc12)C(=O)N[C@@H](CC(C)C)C(=O)N[C@@H](CC(C)C)C(=O)N[C@@H](C)C(=O)N[C@@H](CCCCNC(=O)COCCOCCNC(=O)COCCOCCNC(=O)CC[C@H](NC(=O)CC[C@H](NC(=O)CCCCCCCCCCCCCCCCC(=O)O)C(=O)O)C(=O)O)C(=O)N[C@@H](CCCNC(=N)N)C(=O)NCC(=O)NCC(=O)NCC(=O)NCC(=O)N[C@@H](CO)C(N)=O)C(C)C [Compound 57] (H-[NMeY][Aib]EGTFISDYSIALDR[Aib]AQ[Aib]DFVNWLLAK([AEEA-AEEA-γGlu-γGlu-C18 diacid])RGGGGS-NH2)
solubility (pH 7.4): ≥ 15 mg/mL
solubility (pH 7.4, aqueous buffer): ≥ 30 mg/mL

CC[C@H](C)[C@H](NC(=O)[C@H](CO)NC(=O)[C@H](Cc1ccc(O)cc1)NC(=O)[C@H](CC(=O)O)NC(=O)[C@H](CO)NC(=O)[C@@H](NC(=O)[C@H](Cc1ccccc1)NC(=O)[C@@H](NC(=O)CNC(=O)[C@H](CCC(=O)O)NC(=O)C(C)(C)NC(=O)[C@H](Cc1ccc(O)cc1)NC)[C@@H](C)O)[C@@H](C)CC)C(=O)N[C@@H](C)C(=O)N[C@@H](CC(C)C)C(=O)N[C@@H](CC(=O)O)C(=O)N[C@@H](CCCNC(=N)N)C(=O)NC(C)(C)C(=O)N[C@@H](C)C(=O)N[C@@H](CCC(N)=O)C(=O)NC(C)(C)C(=O)N[C@@H](CC(=O)O)C(=O)N[C@@H](Cc1ccccc1)C(=O)N[C@H](C(=O)N[C@@H](CC(N)=O)C(=O)N[C@@H](Cc1c[nH]c2ccccc12)C(=O)N[C@@H](CC(C)C)C(=O)N[C@@H](CC(C)C)C(=O)N[C@@H](C)C(=O)N[C@@H](CCCCNC(=O)COCCOCCNC(=O)COCCOCCNC(=O)CC[C@H](NC(=O)CC[C@H](NC(=O)CCCCCCCCCCCCCCCCC(=O)O)C(=O)O)C(=O)O)C(=O)N[C@@H](CCCNC(=N)N)C(=O)N1CCC[C@H]1C(=O)N[C@@H](CO)C(=O)N[C@@H](CO)C(=O)NCC(=O)N[C@@H](C)C(=O)N1CCC[C@H]1C(=O)N1CCC[C@H]1C(=O)N1CCC[C@H]1C(=O)N[C@@H](CO)C(N)=O)C(C)C [Compound 58] (H-[NMeY][Aib]EGTFISDYSIALDR[Aib]AQ[Aib]DFVNWLLAK([AEEA-AEEA-γGlu-γGlu-C18 diacid])RPSSGAPPPS-NH2)
solubility [1]: ≥ 30 mg/mL
solubility [2]: ≥ 15 mg/mL

CC[C@H](C)[C@H](NC(=O)[C@H](CO)NC(=O)[C@H](Cc1ccc(O)cc1)NC(=O)[C@H](CC(=O)O)NC(=O)[C@H](CO)NC(=O)[C@@H](NC(=O)[C@H](Cc1ccccc1)NC(=O)[C@@H](NC(=O)CNC(=O)[C@H](CCC(=O)O)NC(=O)C(C)(C)NC(=O)[C@H](Cc1ccc(O)cc1)NC)[C@@H](C)O)[C@@H](C)CC)C(=O)N[C@@H](C)C(=O)N[C@@H](CC(C)C)C(=O)N[C@@H](CC(=O)O)C(=O)N[C@@H](CCCNC(=N)N)C(=O)NC(C)(C)C(=O)N[C@@H](C)C(=O)N[C@@H](CCC(N)=O)C(=O)NC(C)(C)C(=O)N[C@@H](CC(N)=O)C(=O)N[C@@H](Cc1ccccc1)C(=O)N[C@H](C(=O)N[C@@H](CC(N)=O)C(=O)N[C@@H](Cc1c[nH]c2ccccc12)C(=O)N[C@@H](CC(C)C)C(=O)N[C@@H](CC(C)C)C(=O)N[C@@H](C)C(=O)N[C@@H](CCCCNC(=O)COCCOCCNC(=O)COCCOCCNC(=O)CC[C@H](NC(=O)CC[C@H](NC(=O)CCCCCCCCCCCCCCCCC(=O)O)C(=O)O)C(=O)O)C(=O)N[C@@H](CO)C(=O)N1CCC[C@H]1C(=O)N[C@@H](CO)C(=O)N[C@@H](CO)C(=O)NCC(=O)N[C@@H](C)C(=O)N1CCC[C@H]1C(=O)N1CCC[C@H]1C(=O)N1CCC[C@H]1C(=O)N[C@@H](CO)C(N)=O)C(C)C [Compound 59] (H-[NMeY][Aib]EGTFISDYSIALDR[Aib]AQ[Aib]NFVNWLLAK([AEEA-AEEA-γGlu-γGlu-C18 diacid])SPSSGAPPPS-NH2)
solubility [1]: ≥ 30 mg/mL
solubility [2]: ≥ 15 mg/mL
